Common to all, as to type: cell-based, human
In data set [1] the test system is adult stem cells overexpressing CD49f. As to the kind of experiment: MTT cell proliferation assay in CD49f-overexpressing adult stem cells. To be noted: 24 and 48 hours. The procedure:
(§1) In order to further confirm whether CD49f genetic expression is dependent on the activation of PI3K/AKT/GSK3 pathway, adult stem cells overexpressing CD49f were treated with LY294002 or BIO for 24 hours and 48 hours.
The proliferation potential of cells was measured by MTT assay analysis based on the ability of living cells to convert tetrazolium salt into purple formazan. Adult stem cells were transduced with either control vector or CD49f expression vector. After 24 hours from transduction, cells were seeded onto 24-well plate, and incubated in medium comprising LY294002 and BIO. After culture for 24 hours and 48 hours, […] of MTT stock solution (5 mg/ml, Sigma) was added to each well, and then further incubated at 37° C. for 4 hours. After removing the supernatant, […] of DMSO was added to each well so that insoluble purple formazan crystals can be dissolved […]. Then, cells were transferred to 96-well microplate and then the absorbance was measured using EL800 microplate reader (BIO-TEK Instruments, Winooski, Vt., U.S.A.) at wavelength of 540 nm. All of measurements were repeated three times.

The test system of data set [2] is PI3K/AKT/GSK3β. Kind of data set: Western blot for PI3K/AKT/GSK3β in CD49f-overexpressing adult stem cells. The protocol:
(§2) Cells were seeded onto 24-well plate, and then the optical density was measured after 24 hour and 48 hours (*, P<0.05; **, P<0.01). FIG. 9(B) is the result of measuring a size of spheres in the presence or absence of CD49f, LY294002, BIO (*, P<0.05; **, P<0.01). FIG. 9(C) is the result of Western blot analysis for PI3K/AKT/GSK3β. CD49f expression vector was transduced into cells, which were than treated with LY294002 and BIO. Using phospho-specific antibodies for respective proteins the phosphorylation level of protein kinases was identified via Western blotting. 20 μg of protein lysate was loaded onto each well.
Western blot analysis for PI3K, AKT, and GSK3β was conducted according to the reference (Park et al., 2009). Adult stem cells incubated as monolayer or spheres were crushed in 50 mM Tris-HCl buffer comprising 1% Triton X-100 to which 1 mM phenylmethylsulfonyl fluoride, 1 mM aprotinin, 1 mM leupeptin, 1 mM antipain, and 0.1 mM sodium orthovanadate were added, 137 mM NaCl, 2 mM EDTA, and 0.1% SDS. The content of protein was determined using DC assay kit (Bio-Rad, USA), and then SDS-PAGE was conducted by loading a given amount of protein on 0-15% polyacrylamide gel. Then protein was transferred to nitrocellulose membrane at 50 V, 350 mA for 5 hours. […]

The subject of data set [3] is CD49f-overexpressed cells. Kind of data set: Adipogenic differentiation of CD49f-overexpressed adult stem cells (Oil Red O, RT-PCR). The procedure: (§3) Osteogenesis was confirmed through Alizarin Red S staining.
The cell culture of monolayer-incubated cells (Comparative Example 1) and sphere-derived cells (Example 1) was conducted using DMEM containing 5% FBS, 1 μM dexamethasone, 10 μM insulin, 200 μM indomethacin, and 0.5 mM isobutylmethylxanthine to induce differentiation into adipose tissue.
To determine the differentiation degree from fat accumulation present in cells, incubated cells were stained with Oil Red 0, and then Oil Red ° penetrated into cells was extracted with 100% isopropyl alcohol, and quantified with ELISA plate reader (EL800, Bio-Tek Instruments, USA) at OD 500. In addition, using RT-PCR the expression of C/EBP β, AP2, and PPARγ as adipose tissue-specific genes was examined.
(§4) Subsequently, whether in differentiation of adult stem cells into osteocytes and adipocytes CD49f expression can be regulated by PI3K/AKT/GSK3 pathway was identified. CD49f-overexpressed adult stem cells were treated with LY294002 and BIO, and then incubated in osteocyte and adipocyte media, respectively, to induce differentiation into osteogenic and adipogenic lineages.

Data set [4] has as its system adult stem cells. Kind of data set: Survival of adult stem cells treated with BIO. The note with it: BIO treatment.
In data set [5] the test system is adult stem cells overexpressing CD49f. Kind of data set: Sphere formation assay in CD49f-overexpressing adult stem cells. The procedure:
as §2, §1

Data set [6] has as its system CD49f-overexpressed MSCs. Kind of data set: Osteogenic differentiation of CD49f-overexpressed adult stem cells (Alizarin Red S, RT-PCR). The protocol:
as §3
The monolayer-incubated cells (Comparative Example 1) and sphere-derived cells (Example 1) were incubated in DMEM containing 5% FBS, 50 μM L-ascorbate-2-phosphate, 0.1 μM dexamethasone and […] glycerolphosphate to induce differentiation into bone tissue. The cells were stained with Alizarin Red dye specific to calcium, and then the dye was extracted by treating with 100 mM cetylpyridinium chloride (Sigma-Aldrich) for one hour and used for quantitative analysis. The emission of solubilized Alizarin Red S was measured by means of spectrophotometer at 570 nm.
as §4

The subject of data set [7] is PI3K/AKT/GSK3β. As to the kind of experiment: Western blot for PI3K, AKT, GSK3β phosphorylation in MSC spheres. To be noted: spheres treated with 0.2 μM BIO, compared to monolayer-incubated adult stem cells. The procedure: FIG. 6(A) is the result of Western blot analysis conducted after 7 days from sphere culture, wherein MSC spheres were collected by means of 40 μm strainer and then washed two times, and the phosphorylation levels of PI3K and its sequential downstream effectors, AKT and GSK3β were analyzed in monolayer cells, spheres, spheres treated with 0.2 μM BIO, and spheres treated with 30 μM LY294002.
Western blot analysis for PI3K, AKT, and GSK3β was conducted according to the reference (Park et al., 2009). Adult stem cells incubated as monolayer or spheres were crushed in 50 mM Tris-HCl buffer comprising 1% Triton X-100 to which 1 mM phenylmethylsulfonyl fluoride, 1 mM aprotinin, 1 mM leupeptin, 1 mM antipain, and 0.1 mM sodium orthovanadate were added, 137 mM NaCl, 2 mM EDTA, and 0.1% SDS. The content of protein was determined using DC assay kit (Bio-Rad, USA), and then SDS-PAGE was conducted by loading a given amount of protein on 0-15% polyacrylamide gel. Then protein was transferred to nitrocellulose membrane at 50 V, 350 mA for 5 hours. All of antibodies were used according to the manufacturer's instructions, and the protein bands were identified using enhanced chemiluminescence detection kit (Amersham Pharmacia Biotech, Buckinghamshire, UK).

Data set [8] relates to adult stem cell spheres. Kind of data set: Formation of adult stem cell (MSC) spheres with GSK3 or PI3K inhibitor. To be noted: after 7 days; BIO 0.2 μM to 0.5 μM; LY294002 30 μM to 50 μM. The protocol: To form adult stem cell spheres with preventing the adhesion of cells to the bottom of plastic container, 100 mm culture plate coated with 1% agarose (Nunc, Rochester, N.Y.) was used, and 1.5×10^5 adult stem cells were incubated in the growth medium as described in Preparation 1. A total of 15,000 cells were seeded per 1 ml of the medium, and adult stem cell spheres were incubated for one week. To prevent cell loss the culture solution was partially replaced only two times per week. After 7 days, adult stem cell spheres were collected by means of 40 μm pore cell strainer. Adult stem cell spheres as collected were washed with PBS, and gently centrifuged (800 rpm/5 min) for supplementary experiments.
To identify the influence of GSK3 and PI3K signal transduction on sphere formation the inhibitory experiment was practiced. After treatment with BIO (Sigma-Aldrich) as GSK3 inhibitor at the concentration of 0 μM, 0.2 μM, or 0.5 μM, or with […] (Calbiochem, La Jolla, Calif.) as PI3K inhibitor at the concentration of 0 μM, 10 μM, 30 μM, or 50 μM the formation of adult stem cell spheres was observed. The number of adult stem cell spheres was counted after 7 days from culture.

The structures appear in SMILES notation. Entries after “also recorded” stand apart in the source; their conditions may differ.

In the case of `O=C1Nc2cc(Br)ccc2/C1=C1/Nc2ccccc2/C1=N\O` [BIO], the “growth rate / cell proliferation (MTT)” value in data set [1] was “higher”. In data set [2], the AKT phosphorylation result was “induced phosphorylation” and the GSK3 phosphorylation result is given as “induced phosphorylation”. Moreover, the “mRNA levels of adipocyte transcription factors (C/EBP β, aP2, PPARγ, LEPTIN)” value in data set [3] (RT-PCR) is “inhibited; also recorded: significantly reduced”. Besides, the “lipid accumulation (Oil Red O staining)” value in data set [3] (compared to untreated control group) is “inhibited”. Further, the “survival potential of adult stem cells” value in data set [4] is recorded as “does not adversely affect”. Further, the “number of adult stem cell spheres / sphere formation” value in data set [5] is given as “increased”. Also, the “propensity of adult stem cells to differentiate into osteocytes” value in data set [6] (BIO treatment) is “increases”. The “mineral accumulation (Alizarin Red S staining)” value in data set [6] (CD49f-overexpressed MSCs, osteocyte induction) is “further increased”. Further, the “mRNA levels of osteocyte-specific markers (BGLAP, VDR, MSX2, OSTEOCALCIN, RUNX2)” value in data set [6] (RT-PCR, CD49f-overexpressed adult stem cells) is on record as “further increased; also recorded: upregulated”. Besides, the “phospho-PI3K and phospho-AKT” value in data set [7] was “increased”. For the same molecule, in data set [8], the “number of adult stem cell spheres formed” value was “significantly increased” and the “size of adult stem cell spheres” value is recorded as “significantly increased”.
